# Assay results: publication PMC5218480 (PLoS ONE, 2017)
# System: MV-4-11 cells
# Assay: Gene expression microarray analysis (Affymetrix PrimeView) and GSEA
# Type: cell-based, human
# Design: RFU PODN (11730768_x_at) / Fold change /veh PODN (11730768_x_at) / RFU LINC00158 (11744669_a_at) / Fold change /veh LINC00158 (11744669_a_at) / RFU DUSP10 (11751237_a_at) / Fold change /veh DUSP10 (11751237_a_at) / RFU ID3 (11757404_x_at) / Fold change /veh ID3 (11757404_x_at) / RFU PLEKHG5 (11737974_s_at) / Fold change /veh PLEKHG5 (11737974_s_at) / RFU LRRC4B (11730491_at) / Fold change /veh LRRC4B (11730491_at) / RFU GIMAP4 (11747438_a_at) / Fold change /veh GIMAP4 (11747438_a_at) / RFU KRT8 (11758183_x_at) / Fold change /veh KRT8 (11758183_x_at) / RFU CNN1 (11734310_a_at) / Fold change /veh CNN1 (11734310_a_at) / RFU VPS37D (11726825_at) / Fold change /veh VPS37D (11726825_at) / RFU C10orf10 (11716522_x_at) / Fold change /veh C10orf10 (11716522_x_at) / RFU KIR2DL2 /// KIR2DL4 /// KIR2DL5A /// KIR2DL5B /// KIR2DS1 /// KIR2DS2 /// KIR2DS3 /// KIR2DS4 /// KIR3DL3 /// KIR3DL3 /// KIR3DS1 (11738374_at) / Fold change /veh KIR2DL2 /// KIR2DL4 /// KIR2DL5A /// KIR2DL5B /// KIR2DS1 /// KIR2DS2 /// KIR2DS3 /// KIR2DS4 /// KIR3DL3 /// KIR3DL3 /// KIR3DS1 (11738374_at) / RFU C1QL1 (11718748_at) / Fold change /veh C1QL1 (11718748_at) / RFU TMPRSS4 (11747572_a_at) / Fold change /veh TMPRSS4 (11747572_a_at) / RFU HAMP (11756126_x_at) / Fold change /veh HAMP (11756126_x_at) / RFU RNFT2 (11725882_a_at) / Fold change /veh RNFT2 (11725882_a_at) / RFU NR4A2 (11747474_a_at) / Fold change /veh NR4A2 (11747474_a_at) / RFU ABCC12 (11746883_a_at) / Fold change /veh ABCC12 (11746883_a_at) / RFU TMEM136 (11760407_x_at) / Fold change /veh TMEM136 (11760407_x_at) / RFU CLDN22 /// WWC2 (11732394_at) / Fold change /veh CLDN22 /// WWC2 (11732394_at) / RFU HLA-DPB1 (11760878_x_at) / Fold change /veh HLA-DPB1 (11760878_x_at) / RFU SPINT1 (11716480_a_at) / Fold change /veh SPINT1 (11716480_a_at) / RFU GAP43 (11754022_s_at) / Fold change /veh GAP43 (11754022_s_at) / RFU A4GNT (11735810_at) / Fold change /veh A4GNT (11735810_at) / RFU PRB3 (11715151_x_at) / Fold change /veh PRB3 (11715151_x_at) / RFU TUBB4B (11761932_at) / Fold change /veh TUBB4B (11761932_at) / RFU CAPN14 (11732068_a_at) / Fold change /veh CAPN14 (11732068_a_at) / RFU TMCC2 (11721928_a_at) / Fold change /veh TMCC2 (11721928_a_at) / RFU IRGQ (11745062_a_at) / Fold change /veh IRGQ (11745062_a_at) / RFU FAM174B (11720279_a_at) / Fold change /veh FAM174B (11720279_a_at) / RFU TMPRSS4 (11748680_a_at) / Fold change /veh TMPRSS4 (11748680_a_at) / RFU FAM212B (11763350_a_at) / Fold change /veh FAM212B (11763350_a_at) / RFU PLEKHG5 (11743358_a_at) / Fold change /veh PLEKHG5 (11743358_a_at) / RFU ZSCAN30 (11745921_a_at) / Fold change /veh ZSCAN30 (11745921_a_at) / RFU CMKLR1 (11741424_a_at) / Fold change /veh CMKLR1 (11741424_a_at) / RFU LOC101060620 /// MAPK8IP1 (11723275_at) / Fold change /veh LOC101060620 /// MAPK8IP1 (11723275_at) / RFU SPTSSB (11747773_x_at) / Fold change /veh SPTSSB (11747773_x_at) / RFU PRSS12 (11739890_at) / Fold change /veh PRSS12 (11739890_at) / RFU BIN1 (11741810_x_at) / Fold change /veh BIN1 (11741810_x_at) / RFU WNT11 (11732464_a_at) / Fold change /veh WNT11 (11732464_a_at) / RFU C10orf10 (11716521_a_at) / Fold change /veh C10orf10 (11716521_a_at) / RFU C5orf56 (11738089_at) / Fold change /veh C5orf56 (11738089_at) / RFU CYB561 (11721691_x_at) / Fold change /veh CYB561 (11721691_x_at) / RFU ANKRD19P (11752326_a_at) / Fold change /veh ANKRD19P (11752326_a_at) / RFU OR2T12 /// OR2T33 /// OR2T8 (11738714_s_at) / Fold change /veh OR2T12 /// OR2T33 /// OR2T8 (11738714_s_at) / RFU VCAN (11748164_a_at) / Fold change /veh VCAN (11748164_a_at) / RFU JSRP1 (11732532_at) / Fold change /veh JSRP1 (11732532_at) / RFU KRTAP10-11 (11738290_x_at) / Fold change /veh KRTAP10-11 (11738290_x_at) / RFU MYO3A (11730013_a_at) / Fold change /veh MYO3A (11730013_a_at) / RFU EBF3 (11725865_a_at) / Fold change /veh EBF3 (11725865_a_at) / RFU CAMK2N1 (11719241_x_at) / Fold change /veh CAMK2N1 (11719241_x_at) / RFU C5orf56 (11738088_a_at) / Fold change /veh C5orf56 (11738088_a_at) / RFU OLFML3 (11715873_a_at) / Fold change /veh OLFML3 (11715873_a_at) / RFU LOC100653217 /// NTM (11731650_a_at) / Fold change /veh LOC100653217 /// NTM (11731650_a_at) / RFU MAPK11 (11762145_a_at) / Fold change /veh MAPK11 (11762145_a_at) / RFU FIZ1 (11724087_x_at) / Fold change /veh FIZ1 (11724087_x_at) / RFU OASL (11726364_x_at) / Fold change /veh OASL (11726364_x_at) / RFU SOX15 (11748057_x_at) / Fold change /veh SOX15 (11748057_x_at) / RFU CD79A (11719716_a_at) / Fold change /veh CD79A (11719716_a_at) / RFU HIST1H1D (11736915_at) / Fold change /veh HIST1H1D (11736915_at) / RFU CASKIN2 (11723855_a_at) / Fold change /veh CASKIN2 (11723855_a_at) / RFU LOC730098 (11760151_x_at) / Fold change /veh LOC730098 (11760151_x_at) / RFU OR4N2 (11742367_at) / Fold change /veh OR4N2 (11742367_at) / RFU PRRT2 (11749266_a_at) / Fold change /veh PRRT2 (11749266_a_at) / RFU SNX32 (11753110_a_at) / Fold change /veh SNX32 (11753110_a_at) / RFU CDHR5 (11726645_a_at) / Fold change /veh CDHR5 (11726645_a_at) / RFU RCAN1 (11760418_a_at) / Fold change /veh RCAN1 (11760418_a_at) / RFU FAM167A (11723789_a_at) / Fold change /veh FAM167A (11723789_a_at) / RFU FAM26E (11764081_at) / Fold change /veh FAM26E (11764081_at) / RFU ISYNA1 (11749810_s_at) / Fold change /veh ISYNA1 (11749810_s_at) / RFU ACY1 (11761880_at) / Fold change /veh ACY1 (11761880_at) / RFU 11764098_at / Fold change /veh 11764098_at / RFU SAMD14 (11745864_x_at) / Fold change /veh SAMD14 (11745864_x_at) / RFU NPB (11741838_a_at) / Fold change /veh NPB (11741838_a_at) / RFU TMPRSS6 (11731388_a_at) / Fold change /veh TMPRSS6 (11731388_a_at) / RFU KRTAP10-2 (11738614_at) / Fold change /veh KRTAP10-2 (11738614_at) / RFU ARHGAP8 /// PRR5-ARHGAP8 (11727945_x_at) / Fold change /veh ARHGAP8 /// PRR5-ARHGAP8 (11727945_x_at) / RFU KRTAP5-7 /// NADSYN1 (11734609_at) / Fold change /veh KRTAP5-7 /// NADSYN1 (11734609_at) / RFU RASL12 (11751679_a_at) / Fold change /veh RASL12 (11751679_a_at) / RFU CDKN2B (11736163_a_at) / Fold change /veh CDKN2B (11736163_a_at) / RFU PRF1 (11729649_at) / Fold change /veh PRF1 (11729649_at) / RFU, ZNF638 /// ZNF638-IT1 / Fold change vs veh, ZNF638 /// ZNF638-IT1 / RFU, PANK3 / Fold change vs veh, PANK3 / RFU, SH3YL1 / Fold change vs veh, SH3YL1 / RFU, ZEB2 / Fold change vs veh, ZEB2 / RFU, NRIP1 / Fold change vs veh, NRIP1 / RFU, PTTG1IP / Fold change vs veh, PTTG1IP / RFU, CAPN2 / Fold change vs veh, CAPN2 / RFU, MED14 / Fold change vs veh, MED14 / RFU, SNORA58 / Fold change vs veh, SNORA58 / RFU, C1orf63 / Fold change vs veh, C1orf63 / RFU, LRRFIP1 / Fold change vs veh, LRRFIP1 / RFU, NDUFAF7 / Fold change vs veh, NDUFAF7 / RFU, SLC12A2 / Fold change vs veh, SLC12A2 / RFU, IBTK / Fold change vs veh, IBTK / RFU, ESF1 / Fold change vs veh, ESF1 / Fold change vs veh, TMEM50B / RFU, TAOK1 / Fold change vs veh, TAOK1 / RFU, ACBD3 / Fold change vs veh, ACBD3 / RFU, TMA16 / Fold change vs veh, TMA16 / RFU, RWDD3 / Fold change vs veh, RWDD3 / RFU, BCAT1 / Fold change vs veh, BCAT1 / RFU, EDEM3 / Fold change vs veh, EDEM3 / RFU, TMEM33 / Fold change vs veh, TMEM33 / RFU, WDR75 / Fold change vs veh, WDR75 / RFU, AHCTF1 / Fold change vs veh, AHCTF1 / RFU, TFRC / Fold change vs veh, TFRC / RFU, ZDHHC17 / Fold change vs veh, ZDHHC17 / RFU, NOM1 / Fold change vs veh, NOM1 / RFU, ARL8B / Fold change vs veh, ARL8B / RFU, ZBTB11 / Fold change vs veh, ZBTB11 / RFU, TAMM41 / Fold change vs veh, TAMM41 / RFU, KIAA1704 /// LOC100996395 / Fold change vs veh, KIAA1704 /// LOC100996395 / RFU, ING1 / Fold change vs veh, ING1 / RFU, TRMT61B / Fold change vs veh, TRMT61B / RFU, FUBP3 / Fold change vs veh, FUBP3 / RFU, TP53 / Fold change vs veh, TP53 / RFU, TNKS2 / Fold change vs veh, TNKS2 / RFU, ZFP14 / Fold change vs veh, ZFP14 / RFU, ACTR2 / Fold change vs veh, ACTR2 / RFU, PPP3R1 / Fold change vs veh, PPP3R1 / RFU, PIK3R1 / Fold change vs veh, PIK3R1 / RFU, HNRNPA1 / Fold change vs veh, HNRNPA1 / RFU, RNF170 / Fold change vs veh, RNF170 / RFU, ZNF28 / Fold change vs veh, ZNF28 / RFU, RNGTT / Fold change vs veh, RNGTT / RFU, OGT / Fold change vs veh, OGT / RFU, BRD1 / Fold change vs veh, BRD1 / RFU, MARS / Fold change vs veh, MARS / RFU, ZNF655 / Fold change vs veh, ZNF655 / RFU, FAHD1 / Fold change vs veh, FAHD1 / RFU, BDP1 / Fold change vs veh, BDP1 / RFU, LRRCC1 / Fold change vs veh, LRRCC1 / RFU, ARID1A / Fold change vs veh, ARID1A / RFU, ZNF146 / Fold change vs veh, ZNF146 / RFU, ZNF330 / Fold change vs veh, ZNF330 / RFU, GPN3 / Fold change vs veh, GPN3 / RFU, C9orf123 / Fold change vs veh, C9orf123 / RFU, N4BP2L2 / Fold change vs veh, N4BP2L2 / RFU, ARFIP1 / Fold change vs veh, ARFIP1 / RFU, FAM179B / Fold change vs veh, FAM179B / RFU, BCL10 / Fold change vs veh, BCL10 / RFU, UHRF1BP1L / Fold change vs veh, UHRF1BP1L / RFU, BET1 / Fold change vs veh, BET1 / RFU, CNOT2 / Fold change vs veh, CNOT2 / RFU, ZNF268 / Fold change vs veh, ZNF268 / Fold change vs veh, ZNF507 / RFU, DGCR2 / Fold change vs veh, DGCR2 / RFU, WDSUB1 / Fold change vs veh, WDSUB1 / Fold change vs veh, HSP90B1 /// MIR3652 / RFU, ADSS / Fold change vs veh, ADSS / RFU, GK / Fold change vs veh, GK / RFU, ZNF148 / Fold change vs veh, ZNF148 / RFU, TAF9 / Fold change vs veh, TAF9 / RFU, SLC1A5 / Fold change vs veh, SLC1A5 / RFU, SLMO2 / Fold change vs veh, SLMO2 / RFU, ABCC4 / Fold change vs veh, ABCC4 / RFU, LOC101060439 /// RAP1B / Fold change vs veh, LOC101060439 /// RAP1B / RFU, RFX7 / Fold change vs veh, RFX7 / RFU, GTPBP10 / Fold change vs veh, GTPBP10 / RFU, CNEP1R1 / Fold change vs veh, CNEP1R1 / RFU, BIVM-ERCC5 /// ERCC5 / Fold change vs veh, BIVM-ERCC5 /// ERCC5 / RFU, ILF3 / Fold change vs veh, ILF3 / RFU 11762660_at / Fold change /veh 11762660_at / RFU VCAN (11757783_s_at) / Fold change /veh VCAN (11757783_s_at) / RFU DDX43 (11728927_at) / Fold change /veh DDX43 (11728927_at) / RFU KRT8 (11758188_x_at) / Fold change /veh KRT8 (11758188_x_at) / RFU NKD1 (11759106_at) / Fold change /veh NKD1 (11759106_at) / RFU SRD5A1 (11742802_a_at) / Fold change /veh SRD5A1 (11742802_a_at) / RFU TPSAB1 /// TPSB2 (11721975_s_at) / Fold change /veh TPSAB1 /// TPSB2 (11721975_s_at) / RFU GSTM3 (11746129_a_at) / Fold change /veh GSTM3 (11746129_a_at) / RFU IL23R (11737362_x_at) / Fold change /veh IL23R (11737362_x_at) / RFU TMEM51 (11727254_a_at) / Fold change /veh TMEM51 (11727254_a_at) / RFU PIWIL2 (11732686_x_at) / Fold change /veh PIWIL2 (11732686_x_at) / RFU ORM1 (11744905_x_at) / Fold change /veh ORM1 (11744905_x_at) / RFU CCDC152 (11743942_at) / Fold change /veh CCDC152 (11743942_at) / RFU ECM1 (11717891_a_at) / Fold change /veh ECM1 (11717891_a_at) / RFU IL23R (11748794_a_at) / Fold change /veh IL23R (11748794_a_at) / RFU TNFAIP8L3 (11732012_x_at) / Fold change /veh TNFAIP8L3 (11732012_x_at) / RFU MBOAT4 (11741988_at) / Fold change /veh MBOAT4 (11741988_at) / RFU 11764193_at / Fold change /veh 11764193_at / RFU TMEM53 (11763286_at) / Fold change /veh TMEM53 (11763286_at) / RFU MAGEB2 (11727129_at) / Fold change /veh MAGEB2 (11727129_at) / RFU TMEM200A (11744735_a_at) / Fold change /veh TMEM200A (11744735_a_at) / RFU CCDC152 (11751479_a_at) / Fold change /veh CCDC152 (11751479_a_at) / RFU FAM211A (11726209_a_at) / Fold change /veh FAM211A (11726209_a_at) / RFU RGS16 (11746705_a_at) / Fold change /veh RGS16 (11746705_a_at) / RFU VCAN (11755009_s_at) / Fold change /veh VCAN (11755009_s_at) / RFU RHOB (11743442_s_at) / Fold change /veh RHOB (11743442_s_at) / RFU RGS16 (11720943_a_at) / Fold change /veh RGS16 (11720943_a_at) / RFU RGS16 (11720944_at) / Fold change /veh RGS16 (11720944_at) / RFU, VPS4B / Fold change vs veh, VPS4B / RFU, CREB1 / Fold change vs veh, CREB1 / RFU, DNAJC13 / Fold change vs veh, DNAJC13 / RFU, GNAQ / Fold change vs veh, GNAQ / RFU, CDK5R1 / Fold change vs veh, CDK5R1 / RFU, ZRANB3 / Fold change vs veh, ZRANB3 / RFU, CUL4A / Fold change vs veh, CUL4A / RFU, CCNY / Fold change vs veh, CCNY / RFU, UFL1 / Fold change vs veh, UFL1 / RFU, COG3 / Fold change vs veh, COG3 / RFU, DIAPH2 / Fold change vs veh, DIAPH2 / RFU, SKA2 / Fold change vs veh, SKA2 / RFU, AFF3 / Fold change vs veh, AFF3 / RFU, LMF1 / Fold change vs veh, LMF1 / RFU, IPO11 / Fold change vs veh, IPO11 / RFU, DFFB / Fold change vs veh, DFFB / RFU, FOXP1 / Fold change vs veh, FOXP1 / RFU, CARD8 / Fold change vs veh, CARD8 / RFU, STRN3 / Fold change vs veh, STRN3 / RFU, ADK / Fold change vs veh, ADK / RFU, RASSF2 / Fold change vs veh, RASSF2 / RFU, WIPF1 / Fold change vs veh, WIPF1 / RFU, LARP1B / Fold change vs veh, LARP1B / RFU, RASA1 / Fold change vs veh, RASA1 / RFU, RB1 / Fold change vs veh, RB1 / RFU, PPFIA1 / Fold change vs veh, PPFIA1 / RFU, MAT2A / Fold change vs veh, MAT2A / RFU, CCT5 / Fold change vs veh, CCT5 / RFU, WDR92 / Fold change vs veh, WDR92 / RFU, CUX1 / Fold change vs veh, CUX1 / RFU, TTC7A / Fold change vs veh, TTC7A / RFU, TMEM135 / Fold change vs veh, TMEM135 / RFU, DEPTOR / Fold change vs veh, DEPTOR / RFU, CPM / Fold change vs veh, CPM / RFU, DNAJB6 / Fold change vs veh, DNAJB6 / RFU, CACNA2D3 / Fold change vs veh, CACNA2D3 / RFU, DTX4 / Fold change vs veh, DTX4 / RFU, TFCP2 / Fold change vs veh, TFCP2 / RFU, GMCL1 /// GMCL1P1 / Fold change vs veh, GMCL1 /// GMCL1P1 / RFU, AEBP2 / Fold change vs veh, AEBP2 / RFU, SNHG1 /// SNORD22 /// SNORD25 /// SNORD26 /// SNORD27 /// SNORD28 /// SNORD29 /// SNORD31 / Fold change vs veh, SNHG1 /// SNORD22 /// SNORD25 /// SNORD26 /// SNORD27 /// SNORD28 /// SNORD29 /// SNORD31 / Fold change (Aza/veh), C12orf56 (ProbeSet 11735607_a_at) / Fold change (ACY-1035/veh), C12orf56 (ProbeSet 11735607_a_at) / Fold change (Aza/veh), FGFR1OP (ProbeSet 11751329_s_at) / Fold change (ACY-1035/veh), FGFR1OP (ProbeSet 11751329_s_at) / Fold change (Aza/veh), VPS36 (ProbeSet 11739960_a_at) / Fold change (ACY-1035/veh), VPS36 (ProbeSet 11739960_a_at) / RFU SYPL1 (11715823_x_at) / Fold change /veh SYPL1 (11715823_x_at) / RFU IGFBP7 (11715501_s_at) / Fold change /veh IGFBP7 (11715501_s_at) / RFU REEP3 (11722064_at) / Fold change /veh REEP3 (11722064_at) / RFU IGLL1 (11728026_x_at) / Fold change /veh IGLL1 (11728026_x_at): dose or concentration left out as unconfirmed
# Details: MV-4-11 cells, 48 hours
smiles,measurement,value
Nc1ncn([C@@H]2O[C@H](CO)[C@@H](O)[C@H]2O)c(=O)n1 [azacitidine],Fold change /veh A4GNT (11735810_at),0.90
